Data published in US20230271950A1, “ANTIBACTERIAL PICOLINAMIDE COMPOUNDS” (University of Notre Dame Du Lac, priority 2020, published 2023).
In brackets after ≈: the same amount, converted by molar mass. Where two headings read alike, the source gives them in different places.

Key:
C. difficile = assay: MIC by broth microdilution against C. difficile strains; assay type: cell-based, Clostridioides difficile; conditions: for MIC: Clostridioides difficile; for Selectivity: MIC MRSA/MIC C. difficile, Table 3
MRSA (NRS70, NRS119) = assay: MIC against MRSA strains; assay type: cell-based, Staphylococcus aureus; conditions: for MIC: Staphylococcus aureus
[1] = ATCC43255, ATCC 43255, ribotype 087, Table 2 (SAR^1), read-out: MIC C. difficile
[2] = NRS70 strain, Table 2 (SAR^1), read-out: MIC MRSA
[3] = ATCC43255, ATCC 43255, ribotype 087, Table 3 (SAR^2 and SAR^3), read-out: MIC C. difficile
[4] = NRS70 strain, Table 3 (SAR^2 and SAR^3), read-out: MIC MRSA

| MIC (C. difficile; [3]) | MIC (MRSA (NRS70, NRS119); [4]) | Compound | Selectivity (C. difficile) | further results |
| --- | --- | --- | --- | --- |
|  |  | CNC(=O)c1ccnc(-c2ccc(Cl)c(Cl)c2)c1 [Compound 20, 2-(3,4-Dichlorophenyl)-N-methylisonicotinamide] |  | MIC (C. difficile; [1]): 64 µg/mL (≈ 228 µM); MIC (C. difficile; ATCC43255, C. difficile ATCC 43255, read-out: MIC against C. difficile): ≥ 64 µg/mL; MIC (MRSA (NRS70, NRS119); MRSA strain NRS70, read-out: MIC against MRSA): ≥ 64 µg/mL; MIC (MRSA (NRS70, NRS119); [2]): ≥ 256 µg/mL |
| 0.5 µg/mL (≈ 1.35 µM) | 1 µg/mL (≈ 2.69 µM) | O=C(Nc1ncco1)c1ccnc(-c2cccc(OCc3ccccc3)c2)c1 [Compound 57, 2-(3-(Benzyloxy)phenyl)-N-(oxazol-2-yl)isonicotinamide] | 2 |  |
| 0.5 µg/mL (≈ 1.52 µM) | 1 µg/mL (≈ 3.03 µM) | COc1ccc(-c2cc(C(=O)Nc3ncco3)ccn2)cc1Cl [Compound 54, 2-(3-Chloro-4-methoxyphenyl)-N-(oxazol-2-yl)isonicotinamide] | 2 |  |
| 128 µg/mL (≈ 467 µM) | 128 µg/mL (≈ 467 µM) | O=C(Nc1ncco1)c1ccnc(N2CCOCC2)c1 [Compound 62, 2-Morpholino-N-(oxazol-2-yl)isonicotinamide] | 1 |  |
| 2 µg/mL (≈ 6.45 µM) | ≥ 256 µg/mL | O=C(Nc1ncco1)c1ccnc(-c2cccc([N+](=O)[O-])c2)c1 [Compound 50, 2-(3-Nitrophenyl)-N-(oxazol-2-yl)isonicotinamide] | ≥128 |  |
| 4 µg/mL (≈ 10.8 µM) | 8 µg/mL (≈ 21.5 µM) | O=C(Nc1ncco1)c1ccnc(-c2ccc(OCc3ccccc3)cc2)c1 [Compound 56, 2-(4-(Benzyloxy)phenyl)-N-(oxazol-2-yl)isonicotinamide] | 2 |  |
| 4 µg/mL (≈ 13.3 µM) | 8 µg/mL (≈ 26.6 µM) | O=C(Nc1ncco1)c1ccnc(OCCC(F)(F)F)c1 [Compound 65, N-(Oxazol-2-yl)-2-(3,3,3-trifluoropropoxy)isonicotinamide] | 2 |  |
| 4 µg/mL (≈ 13.3 µM) | 8 µg/mL (≈ 26.6 µM) | O=C(Nc1ncco1)c1cncc(-c2ccc(F)c(F)c2)c1 [Compound 82, 5-(3,4-Difluorophenyl)-N-(oxazol-2-yl)nicotinamide] | 2 |  |
|  |  | CC(C)(C)OC(=O)N1CCN(C(=O)c2cnc(NC(=O)c3ccnc(-c4ccc(Cl)c(Cl)c4)c3)o2)CC1 [Compound 30, Tert-butyl 4-(2-(2-(3,4-Dichlorophenyl)isonicotinamido)oxazole-5-carbonyl) piperazine-1-carboxylate] |  | MIC C. difficile (C. difficile; ATCC 43255, ribotype 087, Table 2 (SAR^1)): 0.25 µg/mL (≈ 0.458 µM); MIC MRSA (MRSA (NRS70, NRS119); NRS70 strain, Table 2 (SAR^1)): 2 µg/mL (≈ 3.66 µM) |
| 4 µg/mL (≈ 12.6 µM) | 16 µg/mL (≈ 50.6 µM) | O=C(Nc1ncco1)c1ccnc(-c2cnc3ccccc3c2)c1 [Compound 61, N-(Oxazol-2-yl)-2-(quinolin-3-yl)isonicotinamide] | 4 |  |
| 0.25 µg/mL (≈ 0.716 µM) | 128 µg/mL (≈ 366 µM) | O=C(Nc1ncco1)c1cc(-c2ccc(OC(F)(F)F)cc2)ccn1 [Compound 95, N-(Oxazol-2-yl)-4-(4-(trifluoromethoxy)phenyl)picolinamide] | 512 |  |
| 0.5 µg/mL (≈ 1.43 µM) | ≥ 256 µg/mL | O=C(Nc1ncco1)c1cc(-c2cccc(OC(F)(F)F)c2)ccn1 [Compound 96, N-(Oxazol-2-yl)-4-(3-(trifluoromethoxy)phenyl)picolinamide] | ≥512 |  |
| 2 µg/mL (≈ 6.3 µM) | 8 µg/mL (≈ 25.2 µM) | O=C(Nc1ncco1)c1cncc(-c2ccc(F)c(Cl)c2)c1 [Compound 81, 5-(3-Chloro-4-fluorophenyl)-N-(oxazol-2-yl)nicotinamide] | 4 |  |
| ≥ 16 µg/mL | 128 µg/mL (≈ 403 µM) | O=C(Nc1ncco1)c1cccc(-c2ccc(Cl)c(F)c2)n1 [Compound 78, 6-(4-Chloro-3-fluorophenyl)-N-(oxazol-2-yl)picolinamide] | ≤ 8 |  |
| 2 µg/mL (≈ 5.98 µM) | 2 µg/mL (≈ 5.98 µM) | O=C(Nc1ncco1)c1ccnc(-c2cccc(C(F)(F)F)c2)n1 [Compound 85, N-(Oxazol-2-yl)-2-(3-(trifluoromethyl)phenyl)pyrimidine-4-carboxamide] | 1 |  |
|  |  | O=C(Nc1ncc(C(=O)OCCCCCCO)o1)c1ccnc(-c2ccc(Cl)c(Cl)c2)c1 [Compound 26, 6-Hydroxyhexyl 2-(2-(3,4-dichlorophenyl)isonicotinamido)oxazole-5-carboxylate] |  | MIC (C. difficile; [1]): 0.25 µg/mL (≈ 0.523 µM); MIC (MRSA (NRS70, NRS119); [2]): 0.25 µg/mL (≈ 0.523 µM) |
